Reference: ChEMBL document CHEMBL4665763, “Molecular Networking-Guided Discovery and Characterization of Stechlisins, a Group of Cyclic Lipopeptides from a Pseudomonas sp” (2020)
≈ marks a conversion by molar mass, not a printed value. Calls of active or inactive are those of the source. No cut-off for these calls is given here.

tested on: Moraxella catarrhalis; experiment: Antimicrobial activity against Moraxella catarrhalis FH6810 after 18 hrs by micro broth dilution assay; type: functional

Row | SMILES | MIC [µg/mL] | Activity
1 | CCCCC[C@H](O)CC(=O)N[C@H](CC(C)C)C(=O)N[C@H](CCC(=O)O)C(=O)N[C@H]1C(=O)N[C@H](CC(C)C)C(=O)N[C@H](CC(C)C)C(=O)N[C@H](CO)C(=O)N[C@@H](CC(C)C)C(=O)N[C@H](CCC(N)=O)C(=O)N[C@@H](CC(C)C)C(=O)N[C@@H](CC(C)C)C(=O)N[C@@H](CCC(=O)O)C(=O)O[C@@H]1C | > 128 | –
2 | CCCCCCC[C@H](O)CC(=O)N[C@H](CC(C)C)C(=O)N[C@H](CC(=O)O)C(=O)N[C@H]1C(=O)N[C@H](CC(C)C)C(=O)N[C@H](CC(C)C)C(=O)N[C@H](CO)C(=O)N[C@@H](CC(C)C)C(=O)N[C@H](CCC(N)=O)C(=O)N[C@@H](CC(C)C)C(=O)N[C@@H](C(C)C)C(=O)N[C@@H](CCC(=O)O)C(=O)O[C@@H]1C | > 128 | –
3 | CCCCC[C@H](O)CC(=O)N[C@H](CC(C)C)C(=O)N[C@H](CC(=O)O)C(=O)N[C@H]1C(=O)N[C@H](CC(C)C)C(=O)N[C@H](CC(C)C)C(=O)N[C@H](CO)C(=O)N[C@@H](CC(C)C)C(=O)N[C@H](CCC(N)=O)C(=O)N[C@@H](CC(C)C)C(=O)N[C@@H]([C@@H](C)CC)C(=O)N[C@@H](CCC(=O)O)C(=O)O[C@@H]1C | – | inactive
4 | CCCCCCC[C@H](O)CC(=O)N[C@H](CC(C)C)C(=O)N[C@H](CC(=O)O)C(=O)N[C@H]1C(=O)N[C@H](CC(C)C)C(=O)N[C@H](CC(C)C)C(=O)N[C@H](CO)C(=O)N[C@@H](CC(C)C)C(=O)N[C@H](CCC(N)=O)C(=O)N[C@@H](CC(C)C)C(=O)N[C@@H](CC(C)C)C(=O)N[C@@H](CCC(=O)O)C(=O)O[C@@H]1C | > 128 | –

More lines, main results first:

Row | MIC [µg/mL] | SMILES | Activity
5 | 4 (≈ 2.78 µM) | CCCCCCCCC[C@H](O)CC(=O)N[C@H](CC(C)C)C(=O)N[C@H](CC(=O)O)C(=O)N[C@H]1C(=O)N[C@H](CC(C)C)C(=O)N[C@H](CC(C)C)C(=O)N[C@H](CO)C(=O)N[C@@H](CC(C)C)C(=O)N[C@H](CCC(N)=O)C(=O)N[C@@H](CC(C)C)C(=O)N[C@@H]([C@@H](C)CC)C(=O)N[C@@H](CCC(=O)O)C(=O)O[C@@H]1C | –
6 | > 128 | CCCCCCC[C@H](O)CC(=O)N[C@H](CC(C)C)C(=O)N[C@H](CCC(=O)O)C(=O)N[C@H]1C(=O)N[C@H](CC(C)C)C(=O)N[C@H](CC(C)C)C(=O)N[C@H](CO)C(=O)N[C@@H](CC(C)C)C(=O)N[C@H](CCC(N)=O)C(=O)N[C@@H](CC(C)C)C(=O)N[C@@H]([C@@H](C)CC)C(=O)N[C@@H](CCC(=O)O)C(=O)O[C@@H]1C | –
7 | 32 (≈ 22.7 µM) | CCCCCCC[C@H](O)CC(=O)N[C@H](CC(C)C)C(=O)N[C@H](CC(=O)O)C(=O)N[C@H]1C(=O)N[C@H](CC(C)C)C(=O)N[C@H](CC(C)C)C(=O)N[C@H](CO)C(=O)N[C@@H](CC(C)C)C(=O)N[C@H](CCC(N)=O)C(=O)N[C@@H](CC(C)C)C(=O)N[C@@H]([C@@H](C)CC)C(=O)N[C@@H](CCC(=O)O)C(=O)O[C@@H]1C | –
